Data on 30 molecules can be found in patent US7332602B2, “Pyridyl substituted heterocycles useful for treating or preventing HCV infection” (Rigel Pharmaceuticals, Inc., priority 2002, dated 2008).

Data set [1] deals with HCV replicon (5-2 Luc replicon-comprising cells). As to the kind of experiment: HCV replicon assay (luciferase reporter). To be noted: first symbol of the Replicon/Western cell, 5-2 Luc replicon cells, 24 hours with compound, read-out: Replicon (IC50, 50% reduction in luciferase emission). Type of data set: cell-based, Hepatitis C virus. On the procedure:
The inhibitory activity of certain exemplary compounds of the invention was confirmed using an HCV replicon assay. The HCV replicon can include such features as the HCV IRES, the HCV 3′ untranslated region, selected HCV genes encoding HCV polypeptides, selectable markers, and a reporter gene such as luciferase, GEP, etc. In the assay, actively dividing 5-2 Luc replicon-comprising cells were seeded at a density of between about 5,000 and 7,500 cells/well onto 96 well plates (about 90 μl of cells per well) and incubated at 37° C. and 5% CO2 for 24 hours. Then, the test compound (in a volume of about 10 μl) was added at various concentrations to each well and the cells were incubated for an additional 24 hours before luciferase assay. The cells were harvested, and HCV replication or translation was monitored via a reporter assay, e.g., a luciferase reporter assay. The media was aspirated from each cell and Bright-Glo ([…].) luciferase assay reagents were added to each well according to the manufacturer's instructions. In this assay, the amount of test compound that yielded a 50% reduction in luciferase emission (IC50) was determined.
A general note: Replicon systems follow genome replication, usually without infectious particles.

Data set [2] in a line: cytotoxicity assay (Cell Titer Glo). Type of data set: cell-based. The settings on record: human; 48 hr with compound, ATP-dependent Cell Titer Glo; read-out: IC50 (cytotoxicity, number of viable cells). On the procedure:
Compounds 1, 3, 7, 9, 11, 13, 17, 19, 21, 27, 29, 31, 33, 35, 37, 39, 47, 49, 51, 57 and 69 were tested in a cytotoxicity assay with liver cells including an HCV replicon (5-2 Luc cells, 9-13 cells or Huh-7 cells). In the assay, cells were seeded onto 96-well plates (approx. 7500 cells/well in a volume of 90 μl) and grown for 24 hr at 37° C. On day 2, various concentrations of test compound (in a volume of 10 μl) were added to the wells and the cells were grown for an additional 48 hr at 37° C. On day 4, an ATP-dependent R-Luciferase assay (Cell Titer Glo assay) was performed to determine the number of viable cells.
A general note: Cellular ATP, detected with luciferase, serves as a proxy for viable cell number.

pIC50: −log10 of the molar value. Like-named read-outs stand apart in the source and are kept apart here.

As usually defined, the pIC50 is −log10 of the IC50, conventionally taken in molar units. A word on the IC50: it is the concentration needed to halve the response being measured.

Turning to `O=C(Nc1ccc(-c2cc(-c3c(Cl)cccc3Cl)no2)cn1)C(Cl)Cl` [Compound 65, 2,2-Dichloro-N-[5-[3-(2,6-dichlorophenyl)-5-isoxazolyl]-(2-pyridyl)] Acetamide], the negative-log IC50 (pIC50) in data set [1] was below 5.00.
Same read-out and setting: the figure for `O=C(Nc1cncc(-c2cc(-c3ccccc3C(F)(F)F)no2)c1)C(Cl)Cl` [Compound 67, 2,2-Dichloro-N-[5-[3-(2-trifluoromethylphenyl)-5-isoxazolyl]-(3-pyridyl)] Acetamide] is below 5.00.
As for `CCOC(=O)c1cccnc1-c1cc(-c2cccc(NC(=O)C(Cl)Cl)c2)on1` [Compound 45, 2,2-Dichloro-N-[3-[3-[(3-ethoxycarbonyl)-2-pyridyl]-5-isoxazolyl]phenyl] Acetamide], the pIC50 in data set [1] (Hepatitis C virus) is below 5.00.
Take `Cc1cccnc1-c1cc(-c2cccc(NC(=O)C(Cl)Cl)c2)on1` [Compound 33, 2,2-Dichloro-N-[3-[3-(3-methyl-2-pyridyl)-5-isoxazolyl]phenyl] Acetamide]: in data set [1] (Hepatitis C virus), the pIC50 is above 5.00. The concentration for half-maximal inhibition (IC50) at 48 h in data set [2] was at least 10 µM.
With `CN(C(=O)C(Cl)Cl)c1ccnc(-c2cc(-c3c(Cl)cccc3Cl)no2)c1` [Compound 51, 2,2-Dichloro-N-[2-[3-(2,6-dichlorophenyl)-5-isoxazolyl]-(4-pyridyl)]-N-methyl Acetamide], in data set [1] (Hepatitis C virus), the negative-log IC50 (pIC50) is above 5.00. Besides, the IC50 at 48 h in data set [2] is at least 10 µM.
`O=C(Nc1ccnc(-c2cc(-c3c(F)cccc3Cl)no2)c1)C(Cl)Cl` [Compound 1, 2,2-Dichloro-N-[2-[3-(2-chloro-6-fluorophenyl)-5-isoxazolyl]-(4-pyridyl)] Acetamide]: the negative logarithm of the IC50 (pIC50) in data set [1] (Hepatitis C virus) is above 5.00. Further, in data set [2], the IC50 at 48 h is at least 10 µM.
Take `O=C(Nc1ccnc(-c2cc(-c3c(N4CCOCC4)cccc3C(F)(F)F)no2)c1)C(Cl)Cl` [Compound 31, 2,2-Dichloro-N-[2-[3-(2-morpholino-6-trifluoromethylphenyl)-5-isoxazolyl]-(4-pyridyl)] Acetamide]: in data set [1] (Hepatitis C virus), the pIC50 was above 5.00. Moreover, the IC50 at 48 h in data set [2] is at least 10 µM.
Regarding `O=C(Nc1cncc(-c2cc(-c3c(Cl)cccc3N3CCNCC3)no2)c1)C(Cl)Cl` [Compound 73, 2,2-Dichloro-N-[5-[.3-(2-chloro-6-piperazinophenyl)-5-isoxazolyl]-(3-pyridyl)] Acetamide], the pIC50 in data set [1] is above 5.00.
On to `CCN1CCN(c2cccc(Cl)c2-c2cc(-c3cncc(NC(=O)C(Cl)Cl)c3)on2)CC1` [Compound 63], for which the pIC50 in data set [1] (Hepatitis C virus) is above 5.00.
On to `COc1cccc(F)c1-c1cc(-c2cc(NC(=O)C(Cl)Cl)ccn2)on1` [Compound 39], for which, in data set [2], the IC50 at 48 h was at least 10 µM.
For the molecule `O=C(Nc1ccncc1-c1cc(-c2cccc(Br)n2)no1)C(Cl)Cl` [Compound 97, 2,2-Dichloro-N-[3-[3-[(6-bromo)-2-pyridyl]-5-isoxazolyl]-(4-pyridyl)] Acetamide], the pIC50 in data set [1] is below 5.00.
Consider “2,2-Dichloro-N-[5-[3-[2-chloro-6-[4-(N-acetyl)piperazino]phenyl])-5-isoxazoly]-(3-pyridyl)] Acetamide [Compound 61]”, for which, in data set [1], the negative logarithm of the IC50 (pIC50) is above 5.00.
With `O=C(Nc1cccc(-c2cc(-c3c(Cl)ccnc3Cl)no2)c1)C(Cl)Cl` [Compound 93, 2,2-Dichloro-N-[3-[3-[(2,4-dichloro)-3-pyridy]-5-isoxazolyl]phenyl] Acetamide], the negative logarithm of the IC50 (pIC50) in data set [1] is above 5.00.
In the case of “2,2-Dichloro-N-[5-[3-[2-chloro-6-[4-(N-2-pyridyl)pipera phenyl])5-isoxazolyl]-(3-pyridyl)] Acetamide [Compound 69]”, the pIC50 in data set [1] was above 5.00.
Consider `O=C(Nc1ccnc(-c2cc(-c3c(O)cccc3Cl)no2)c1)C(Cl)Cl` [Compound 89, 2,2-Dichloro-N-[2-[3-(2-chloro-6-hydioxyphenyl)-5-isoxazolyl]-(4-pyridyl)] Acetamide], for which the negative-log IC50 (pIC50) in data set [1] is above 5.00.
On the same count and under the same terms, as for “2,2-Dichloro-N-[5-[3-[2-chloro-6-[4-(N-ethylcarboxamido)piperazino]phenyl])-5-isoxazolyl]-(3-pyridyl)] Acetamide [Compound 81]”, the figure is above 5.00; as for “2,2-Dichloro-N-[5-[3-[2-chloro-6-[4-(N-tert-butoxycarbonyl)piperazino]phenyl])-5-isoxazolyl]-(3-pyridyl)] Acetamide [Compound 71]”, above 5.00; as for `CCCNC(=O)Oc1cccc(Cl)c1-c1cc(-c2cc(NC(=O)C(Cl)Cl)ccn2)on1` [Compound 85], above 5.00.
As to `CN(C)c1nccc(Cl)c1-c1cc(-c2cccc(NC(=O)C(Cl)Cl)c2)on1` [Compound 91, 2,2-Dichloro-N-[3-[3-[(4-chloro-2-dimethylamino)-3-pyridyl]-5-isoxazolyl]phenyl] Acetamide], the pIC50 in data set [1] is above 5.00.
For the molecule `CC(C)(C)[Si](C)(C)Oc1cccc(Cl)c1-c1cc(-c2cncc(NC(=O)C(Cl)Cl)c2)on1` [Compound 75, 2,2-Dichloro-N-[5-[3-(2-chloro-6-tert-butyldimethylsilyloxyphenyl)-5-isoxazolyl]-(3-pyridyl)] Acetamide], in data set [1], the pIC50 was above 5.00.
On to `O=C(Nc1ccnc(-c2cc(-c3c(F)cccc3S(=O)(=O)NN3CCOCC3)no2)c1)C(Cl)Cl` [Compound 47], for which the negative logarithm of the IC50 (pIC50) in data set [1] is above 5.00.
Take `CC(C)(C)[Si](C)(C)Oc1cccc(Cl)c1-c1cc(-c2cc(NC(=O)C(Cl)Cl)ccn2)on1` [Compound 83, 2,2-Dichloro-N-[2-[3-(2-chloro-6-tert-butyldimethylsilyloxyphenyl)-5-isoxazolyl]-(4-pyridyl)] Acetamide]: the pIC50 in data set [1] was above 5.00.
`O=C(Nc1cc[n+]([O-])c(-c2cc(-c3c(Cl)cccc3Cl)no2)c1)C(Cl)Cl` [Compound 43]: the negative-log IC50 (pIC50) in data set [1] (Hepatitis C virus) was below 5.00.
`CCNC(=O)Oc1cccc(Cl)c1-c1cc(-c2cncc(NC(=O)C(Cl)Cl)c2)on1` [Compound 79, 2,2-Dichloro-N-[5-[3-(2-chloro-6-N-ethylcarbamoyloxyphenyl)-5-isoxazolyl]-(3-pyridyl)] Acetamide]: in data set [1], the negative logarithm of the IC50 (pIC50) was above 5.00.
With `O=C(Nc1cncc(-c2cc(-c3c(O)cccc3Cl)no2)c1)C(Cl)Cl` [Compound 77, 2,2-Dichloro-N-[5-[3-(2-chloro-6-hydroxyphenyl)-5-isoxazolyl]-(3-pyridyl)] Acetamide], in data set [1], the negative-log IC50 (pIC50) is above 5.00.
On to `O=C(Nc1cncc(-c2cc(-c3cccc(Cl)c3Cl)no2)c1)C(Cl)Cl` [Compound 29, 2,2-Dichloro-N-[5-[3-(2,3-dichloroplhenyl)-5-isoxazolyl]-(3-pyridyl)] Acetamide], for which, in data set [1] (Hepatitis C virus), the pIC50 is above 5.00. In data set [2], the IC50 at 48 h is at least 10 µM.
On to `O=C(Nc1cncc(-c2cc(-c3c(F)cccc3C(F)(F)F)no2)c1)C(Cl)Cl` [Compound 37, 2,2-Dichloro-N-[5-[3-(2-fluoro-6-trifluoromethylphenyl)-5-isoxazolyl]-(3-pyridyl)] Acetamide], for which, in data set [1] (Hepatitis C virus), the pIC50 was below 5.00. Further, the 50% inhibitory concentration (IC50) at 48 h in data set [2] was at least 10 µM.
As to `COCOc1cccc(Cl)c1-c1cc(-c2cc(NC(=O)C(Cl)Cl)ccn2)on1` [Compound 87], in data set [1], the pIC50 is above 5.00.
With `Cc1cccc(C)c1-c1cc(-c2cc(NC(=O)C(Cl)Cl)ccn2)on1` [Compound 19, 2,2-Dichloro-N-[2-[3-(2,6-dimethylphenyl)-5-isoxazolyl]-(4-pyridyl)] Acetamide], in data set [1] (Hepatitis C virus), the negative logarithm of the IC50 (pIC50) was above 5.00. For the same molecule, the IC50 at 48 h in data set [2] is above 5 µM.
Consider `O=C(Nc1cccc(-c2cc(-c3c(Cl)cccc3Cl)no2)n1)C(Cl)Cl` [Compound 35, 2,2-Dichloro-N[6-[3-(2,6-dichlorophenyl)-5-isoxazolyl]-(2-pyridyl)] Acetamide], for which the pIC50 in data set [1] (Hepatitis C virus) is below 5.00. Further, the IC50 at 48 h in data set [2] was at least 10 µM.
